Earlier results as cited in US20160287532A1 (SignPath Pharma Inc., priority 2015, published 2016).
Like-named read-outs stand apart in the source and are kept apart here.

Tests used:
MMP-1 [1] = settings: IL-1β pre-stimulated disc cells
NF-κB = settings: IVD cells of patients with acute spinal injury
SOX9 = settings: IVD cells of patients with acute spinal injury
MMP-9 [2] = settings: chondrocytes
MMP-9 [3] = settings: MDA breast cancer cell line
MMP-2 = settings: MDA-MB-231 cells
TIMP-1 = settings: MDA-MB-231 cells
MMP-9 [4] = settings: human astroglioma cells
[5] = tested on: type II collagen-induced arthritis; settings: oral, mice; dose dependent manner
MMP-1 [6] = settings: oral, mice; dose dependent manner
IL-1β = settings: monocytes and macrophages
IL-6 [7] = settings: monocytes, high glucose environment
MCP-1 = settings: viral induced ARDS mouse model
IL-6 [8] = settings: rheumatoid synovial fibroblasts
TNF-α = settings: rats with non-bacterial prostatitis
[9] = tested on: pro-inflammatory cytokines; settings: hepatocellular carcinoma cell lines
[10] = tested on: pro-inflammatory cytokines; settings: colon carcinoma cell lines

COc1cc(/C=C/C(=O)/C=C(O)/C=C/c2ccc(O)c(OC)c2)ccc1O [curcumin, 1,7-bis(4-hydroxy-3-methoxyphenyl)-1,6-heptadiene-3,5-dione]
reduction in MMP-1 expression (MMP-1 [1]; 5 μM curcumin): 22% | reduction in MMP-1 expression (MMP-1 [1]; 10 μM curcumin): 60% | reduction in MMP-1 expression (MMP-1 [1]; 20 μM curcumin): 78% | IL-1 induced NF-κB activity (NF-κB): blocked | IL-1 inhibition of SOX9 expression (SOX9): reversed | MMP-9 regulation (MMP-9 [2]): down regulation | MMP-9 (MMP-9 [3]): inhibited | MMP-2 (MMP-2): down-regulated | TIMP-1 (TIMP-1): up-regulated | MMP-9 (MMP-9 [4]): Suppression | type II collagen-induced arthritis [5]: suppress | MMP-1 expression in joints (MMP-1 [6]): suppress | IL-1β release (IL-1β): suppresses | release of IL-6 (IL-6 [7]): markedly reduced | expression of MCP-1 (MCP-1): reduced | release of IL-6 (IL-6 [8]): block | TNF-α expression (TNF-α): reduced | pro-inflammatory cytokines [9]: suppressed | pro-inflammatory cytokines [10]: suppressed
